The conditions of data set [1]: octylglucoside with A8-35 and other amphipols; ref [13]; cited from earlier work.
Data set [2] can be described thus: Isothermal titration calorimetry, SDS demicellization in presence of A8-35. The data set is classed as physicochemical. To be noted: 25°C, 10 mM phosphate, 150 mM NaCl, pH 7.4. On the procedure:
ITC experiments were performed on a VP-ITC (GE Healthcare) at 25°C in 10 mM phosphate buffer (150 mM NaCl, pH 7.4). For demicellization experiments, 5-µL aliquots containing both, SDS at a concentration well above its CMC (10-13 mM) as well as A8-35 at concentrations of 5-140 µM, were injected into the sample cell containing the same amphipol concentration but no SDS. Time spans between injections were chosen long enough to allow for complete re-equilibration. Baseline subtraction and peak integration were accomplished using NITPIC [32], and the resulting isotherms were analyzed by nonlinear least-squares fitting in a spreadsheet program.
Thermal denaturation of MPs often leads to irreversible aggregation of the MP, and guanidine hydrochloride and urea, which are frequently used in unfolding studies involving soluble proteins, do typically not denature the TM regions of MPs. This is why the thermodynamic stability of integral MPs within membrane-mimetic systems is often assessed by titrating increasing concentrations of the anionic detergent SDS to MPs dissolved in a mild detergent, such as DDM [24], [40]-[44]. […] At low APol concentrations, the isotherms thus obtained resembled those measured in SDS demicellization experiments in the absence of APol. […]
Figure 5 Interactions of SDS with A8-35 monitored by isothermal titration calorimetry. […]

Data set [3] concerns the molecule itself. In words: FRET or BRET; steady-state FRET of FL- and TAMRA-labelled peptide (0.25 µM each, 0.5 µM total) in Amphipol A8-35 at 5 to 75 µM; 10 mM HEPES pH 7.4, 150 mM NaCl; 25°C; apparent constants; dimer to monomers. (Bioluminescence resonance energy transfer reports proximity on the nanometre scale.)
Data set [4] deals with the molecule itself. In words: FRET or BRET; steady-state FRET at 0.5 µM peptide and 20 µM A8-35 (40:1) with increasing SDS added to preformed APol/GpA complexes; 25°C after incubation at 37°C; apparent constants; dimer to monomers.
Data set [5] concerns the molecule itself. In words: FRET or BRET; energy transfer at different acceptor mole ratios at constant total peptide concentration, in 5 µM and 50 µM A8-35.

“Also recorded” adds a separate entry of the source. No end group written: not given here. Bounds are passed on as bounds.

Regarding `CCCCCCCCO[C@@H]1O[C@H](CO)[C@@H](O)[C@H](O)[C@H]1O` [octylglucoside], the “mixing behavior with amphipols” value in data set [1] is “nearly ideal mixing behavior”.

As for `CCCCCCCCCCCCOS(=O)(=O)[O-].[Na+]` [SDS, sodium dodecyl sulfate], the “mixing behavior of SDS with A8-35” value in data set [2] (qualitative) is recorded as “follows a more complex pattern; also recorded: strongly non-ideal”. In addition, the “nonideality parameters of SDS/A8-35 mixing” value in data set [2] (regular mixing model, intermediate SDS contents, A8-35 5-140 µM) is 3–4 RT.

B1: GpA TM domain peptide (residues 69–101 of human glycophorin A) (peptide)
peptide: SEPEITLIIFGVMAGVIGTILLISYGIRRLIKK
modifications: also: N-terminal label: fluorescein or TAMRA
notes: glycophorin A, human, transmembrane domain, residues 69-101; Self-association is measured by FRET between the FL-labelled and the TAMRA-labelled copy of the same peptide, mixed in equal concentrations (0.25 µM each); both are written as one molecule; also called GpA TM peptide; GpA TM helix; source: synthetic peptide (custom-synthesized, Peptide Specialty Laboratories, Heidelberg)
As a reminder, the stoichiometry N is the number of molecules, sites or subunits per partner or assembly. Consider B1, for which the Kd in data set [3] is less than 300 nM. Also, the “fold increase of KD (SDS exceeding 1.5 mM against no SDS)” value in data set [4] is roughly 10 fold. The “stoichiometry N” value in data set [5] turned out to be 2.
